From patent publication US12440484B2, “1,3,4-oxadiazole homophthalimide derivative compounds as histone deacetylase 6 inhibitor, and the pharmaceutical composition comprising the same” (Chong Kun Dang Pharmaceutical Corp., priority 2019, dated 2025) come the findings set out here.

Assay [1] concerns the target HDAC6 human recombinant (Homo sapiens (Human), UniProt Q9UBN7). As to the kind of experiment: HDAC enzyme activity inhibition (in vitro), HDAC6 assay. Type of assay: biochemical. Conditions: samples at 0.1, 1, 10, 100 and 1000 nM; 37° C. 60 minutes; fluorescence Ex 390, Em 460.
In assay [2] the target is HDAC1 (Homo sapiens (Human), UniProt Q13547). The experiment in a line: HDAC enzyme activity inhibition (in vitro), HDAC1 Fluorimetric Drug Discovery Assay Kit. The format is biochemical. To be noted: samples at 100, 1000 and 10000 nM; 37° C. 60 minutes; fluorescence Ex 390, Em 460.
HDAC1, sequence (Q13547 whole entry): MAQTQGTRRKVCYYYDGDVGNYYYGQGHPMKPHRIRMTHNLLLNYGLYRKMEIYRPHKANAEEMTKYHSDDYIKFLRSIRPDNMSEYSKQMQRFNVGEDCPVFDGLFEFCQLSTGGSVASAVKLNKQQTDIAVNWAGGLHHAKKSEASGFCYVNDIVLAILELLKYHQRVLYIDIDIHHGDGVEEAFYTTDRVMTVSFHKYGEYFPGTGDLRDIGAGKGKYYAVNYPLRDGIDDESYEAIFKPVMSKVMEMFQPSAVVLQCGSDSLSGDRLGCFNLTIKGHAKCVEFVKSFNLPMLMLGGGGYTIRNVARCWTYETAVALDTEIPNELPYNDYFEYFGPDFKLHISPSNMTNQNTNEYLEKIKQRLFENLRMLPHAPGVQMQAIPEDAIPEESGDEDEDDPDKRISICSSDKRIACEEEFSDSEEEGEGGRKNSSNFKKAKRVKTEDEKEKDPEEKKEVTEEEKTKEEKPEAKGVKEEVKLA

Structures are written as SMILES. Some results are limits rather than exact numbers.

In general, IC50 refers to the midpoint of a concentration-inhibition curve.

HDAC6 human recombinant, sequence (Q9UBN7 whole entry): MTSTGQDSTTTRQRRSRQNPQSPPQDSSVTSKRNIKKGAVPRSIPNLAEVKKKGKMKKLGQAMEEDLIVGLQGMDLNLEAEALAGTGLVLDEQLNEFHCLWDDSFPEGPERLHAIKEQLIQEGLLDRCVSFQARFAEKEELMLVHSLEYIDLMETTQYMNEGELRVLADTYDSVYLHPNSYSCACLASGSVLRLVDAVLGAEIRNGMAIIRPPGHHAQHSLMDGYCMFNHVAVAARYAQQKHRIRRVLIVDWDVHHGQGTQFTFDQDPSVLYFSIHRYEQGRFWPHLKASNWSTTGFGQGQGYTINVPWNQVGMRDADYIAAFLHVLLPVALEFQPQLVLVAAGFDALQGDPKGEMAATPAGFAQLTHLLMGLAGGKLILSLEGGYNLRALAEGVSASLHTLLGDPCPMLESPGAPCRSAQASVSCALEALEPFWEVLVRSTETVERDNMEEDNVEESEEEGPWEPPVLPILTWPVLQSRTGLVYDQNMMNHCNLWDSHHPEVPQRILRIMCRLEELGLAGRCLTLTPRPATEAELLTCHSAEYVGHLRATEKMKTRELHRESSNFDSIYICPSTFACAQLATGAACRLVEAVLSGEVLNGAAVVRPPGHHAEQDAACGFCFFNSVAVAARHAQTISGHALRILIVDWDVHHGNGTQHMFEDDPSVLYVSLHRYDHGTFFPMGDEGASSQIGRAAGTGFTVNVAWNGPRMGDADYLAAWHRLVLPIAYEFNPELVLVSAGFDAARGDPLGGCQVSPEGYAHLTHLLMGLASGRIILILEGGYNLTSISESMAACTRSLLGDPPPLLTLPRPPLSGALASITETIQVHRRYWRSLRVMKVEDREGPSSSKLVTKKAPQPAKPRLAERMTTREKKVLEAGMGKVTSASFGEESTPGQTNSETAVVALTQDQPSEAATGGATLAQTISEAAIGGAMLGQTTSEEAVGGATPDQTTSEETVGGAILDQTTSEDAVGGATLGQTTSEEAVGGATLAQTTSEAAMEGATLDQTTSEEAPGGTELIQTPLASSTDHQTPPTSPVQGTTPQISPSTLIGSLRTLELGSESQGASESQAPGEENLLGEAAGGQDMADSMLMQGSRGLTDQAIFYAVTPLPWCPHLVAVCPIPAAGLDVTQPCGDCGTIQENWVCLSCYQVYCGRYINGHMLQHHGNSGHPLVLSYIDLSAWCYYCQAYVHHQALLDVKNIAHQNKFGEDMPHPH

As to `COCCn1c(=O)c2ccccc2n(Cc2ccc(-c3nnc(C(F)F)o3)cn2)c1=O` [Compound 76, 1-((5-(5-(difluoromethyl)-1,3,4-oxadiazole-2-yl)pyridine-2-yl)methyl)-3-(2-methoxyethyl)quinazoline-2,4(1H,3H)-dione], the IC50 in assay [1] was 79 nM; in assay [2], more than 10000 nM.
Taken in the same sequence, the figures for `O=c1c2ccccc2n(CCN2CCCCC2)c(=O)n1Cc1ccc(-c2nnc(C(F)F)o2)cn1` [Compound 9, 3-((5-(5-(difluoromethyl)-1,3,4-oxadiazole-2-yl)pyridine-2-yl)methyl)-1-(2-(piperidine-1-yl)ethyl)quinazoline-2,4(1H,3H)-dione] were 126 nM and more than 10000 nM.
For `Cc1ccc(-c2ccc3c(c2)C(=O)N(Cc2ccc(-c4nnc(C(F)F)o4)cn2)C(=O)C3(C)C)o1` [Compound 114, 2-((5-(5-(difluoromethyl)-1,3,4-oxadiazole-2-yl)pyridine-2-yl)methyl)-4,4-dimethyl-7-(5-methylfuran-2-yl)isoquinoline-1,3(2H,4H)-dione] the same measures were 77 nM and more than 10000 nM.
